According to US20110053835A1, “ANTIMICROBIAL PEPTIDES DERIVED FROM CAP18” (OctoPlus Sciences B.V., priority 2004, published 2011):

Columns and labels:
LPS [1] = experiment: LPS neutralization, whole blood (WB) assay; assay type: cell-based; details: ± SD
Method: (§1) The compounds prepared according to example 1 were tested for their capability to neutralize the bacterial toxin LPS with a limulus amoebocyte lysate (LAL) assay and with a whole blood (WB) assay. LTA neutralization was also measured with a whole blood assay. Peptide LL-37 was used as a positive control. The peptide concentration whereby 50% LPS is neutralized was used as a measure of the peptide's activity. These concentration values were as in table 1. The differences between the compounds within each assay were not statistically significant.

[2] = test system: peripheral blood mononuclear cells (PBMC); experiment: γ-IFN Elispot assay; assay type: cell-based; details: fraction of positive stimulation indices (positive: >2), 48 hours of culture
Method: (§2) The compounds prepared according to example 1 were tested for their therapeutically undesirable immunogenic activity by using Elispot, T-cell proliferation, ERK-activation, and neutrophil chemotaxis assays. The Elispot assay is applicable to determine effects of drugs, chemicals or other compounds on cytokine secretion in vitro, thereby providing data on their putative modulatory effects on immune function in vivo. The results of the assay are given as fraction of positive responses to IFN-gamma. […] Cytokines are direct mediators of inflammation and influence the progress and direction of many immunological reactions. Perturbation of the balance in cytokine production is widely recognized as a critical factor in several disease states. This balance is already disturbed in the case of conditions such as otitis media with effusion and sinusitis. T. cell proliferation is also not favorable in this situation, because this will also stimulate the immune response that is already out of control.
(§3) For T cell proliferation, 150,000 peripheral blood mononuclear cells (PBMC) were cultured in the absence or presence of 10 μg/ml of the compounds for 5 days in 96 well round bottom plates (Costar Inc. Cambridge, Mass.) in a final volume of 150 μl IMDM complete. As a positive control, PBMC were cultured in the presence of 25 U/ml recombinant IL-2. During the final 20 hours of culture, PBMC were pulsed with [3H]thymidine (0.5 microCi/well), after which 3H-incorporation was measured by liquid scintillation counting. For detection of the T cell cytokines IFN and IL-10 by Elispot analysis, 1.5×10^6 PBMC were cultured in 0.5 ml IMDM complete in the absence or presence of various concentrations of synthetic peptide. As a positive control PBMC were stimulated by 10 μg/ml poke weed mitogen (PWM). After 48 hours of culture, PBMC were harvested by gently rinsing the wells with warm IMDM to collect non-adherent cells, which were washed in a large volume of IMDM. PBMC were subsequently plated on antibody-precoated ELISA plates and cultured for 5 hours in IMDM supplemented with 2% pooled human AB serum at 37° C. 5% CO2, after which the plates were developed according to the manufacturer's protocol (U-CyTech, Utrecht, The Netherlands), Spots were counted on an Olympus microscope and analyzed with Olympus Micro Image 4.0 software (Paes Nederland, Zoeterwoude, The Netherlands). The final results are expressed as fraction of positive stimulation indices (positive: >2).

[3] = test system: peripheral blood mononuclear cells (PBMC); experiment: T cell proliferation ([3H]thymidine incorporation); assay type: cell-based; details: fraction of positive stimulation indices (positive: >2), 10 μg/ml compound, 5 days
Method: as §2, §3

[4] = test system: neutrophils isolated from peripheral blood; experiment: Neutrophil chemotaxis (modified Boyden chamber); assay type: cell-based; details: percentage neutrophils on the membrane compared to positive control 10^−8 M FMLP; 90 minutes at 37° C.
Method: Neutrophils chemotaxis was measured with neutrophils isolated from peripheral blood using Percoll density centrifugation (density: 1.082 g/ml). The cells were resuspended at a concentration of 2.5×10^6 cells/ml in chemotaxis medium (20 mM N-2-hydroxyethylpiperazine-N′-2-ethanesulfonic acid (HEPES buffer) HEPES, 132 mM NaCl, 6 mM KCl, 1.2 mM KH2PO4, 1 mM MgSO4, 5.5 mM glucose, 0.1 mM CaCl2 and 0.5% (wt/vol) human serum albumm [Central Laboratory of the Netherlands Red Cross Blood Transfusion Service (CLB), Amsterdam, The Netherlands] diluted 1:1 with serum-free RPMI. The chemotactic activity of the compounds was assessed using a modified Boyden Camber technique. Briefly, 26 μl stimuli diluted in HEPES buffer was added to the wells of the lower compartment, and 50 μl of neutrophil suspension (2.5×10^6 cells/ml) was added to the upper compartment. The compartments were separated by two filters: a lower filter with a pore size of 0.45 μm (Millipore Products, Bedford, Mass.) and an upper filter with a pore size of 8 μm (Sartorius Filter, San Francisco, Calif.). After incubation for 90minutes at 37° C., the upper filters were removed, fixed in ethanol-butanol (80:20, vol/vol), and stained with Weigert solution. To determine neutrophil chemotactic activity, neutrophils were counted in six random high-power fields (×400), and the percentage neutrophils on the membrane as compared to the positive control (10^−8 M, N-formylmethionyl-leucyl-phenylalanine (FMLP, Sigma) was calculated.

LPS [5] = experiment: LPS neutralization, limulus amoebocyte lysate (LAL) assay; assay type: biochemical; details: ± SD
Method: as §1

LTA = LTA neutralization, whole blood (WB) assay; assay type: cell-based; details: ± SD
Method: as §1

Row | Sequence | Compound concentration for 50% LPS-neutralization, LPS (WB) (LPS [1]) [µg/mL] | γ-IFN Elispot [2] | T cell proliferation [3] | Chemotaxis (%) [4] [%] | Compound concentration for 50% LPS-neutralization, LPS (LAL) (LPS [5]) [µg/mL] | Compound concentration for 50% LTA-neutralization, LTA (WB) (LTA) [µg/mL]
1 | IGKEFKRIVERIKRFLRELVRPLR [Compound P60.4] | 2.1 ± 0.6 | 3/8 | 2/8 | 0 ± 0 | 1.7 ± 0.6 | 2.0 ± 1.3
2 | IGKEFERIVQRIKDFLRNLVPRTE [Compound P60, 24 amino acid peptide derived from CAP18/LL-37] | 1.4 ± 0.1 | 1/8 | 7/8 | 76 ± 39 | 1.5 ± 0.5 | 2.1 ± 0.7
3 | IGKEFKRIVQRIKDFLRNLVPRTE [Compound P60.Ac] | 2.4 ± 0.5 | 3/8 | 4/8 | 61 ± 36 | 1.8 ± 0.8 | 2.1 ± 0.1
